Results from patent publication US20240398980A1, “NUCLEIC ACID-CONJUGATED POLYMERIC NANOPARTICLES AND METHODS OF USE” (The Brigham and Women's Hospital, Inc., priority 2021, published 2024).

Tests used:
[1] = Pharmacokinetics in plasma after i.v. administration (LC-MS-MS and fluorescence); format: in vivo, C57BL/6 mice; settings: 15 min after i.v.
Experimental: Pharmacokinetics of CDN-NPs: Non-tumor bearing 6-8-week-old female C57BL/6 mice were injected i.v. (100 μL per mouse) with fluorescent CDN-NPs and whole blood was collected 0.25, 0.5, 1, 3, 6, and 24 h post injection in Eppendorf tubes containing heparin though submandibular bleed (for early time points) or cardiac puncture (for late time points). Plasma was obtained by centrifugation for 20 mins at 10000×g. Fluorescent CDN-NPs were quantified using a 640 nm excitation and 680 emission wavelength by plate reader and CDN was also quantified by LC-MS/MS.

IRF response = experiment: IRF reporter response in RAW-Lucia ISG cells; format: cell-based, murine
Experimental: (§1) In vitro evaluation of CDN-NP activity: Human monocyte THP-1 Dual™ cells, THP-1 Dual™ KO-STING cells, RAW-Lucia™ ISG cells and RAW-Lucia™ ISG KO-STING cells were seeded in 96-well plates at 1×10^5 cells per well and incubated with the CDN-NP or free CDN at CDN concentrations ranging from 0-500 nM. At 24 h post treatment, interferon regulatory factor (IRF)3 activity was examined using the QUANTI-Luc™ reagent (InvivoGen) and NF-κB activity (only THP-1 Dual™ cells) was determined using the QUANTI-Blue™ reagent (InvivoGen) according to the manufacturer's instructions.

[2] = system: bone-marrow derived macrophages (BMDMs); experiment: Primary immune cell activation, flow cytometry; format: cell-based, C57BL/6 mice
Experimental: BMDC and BMDM isolation: The tibias and femurs of female wild type or goldenticket C57BL/6 mice (aged 8-12 weeks) were isolated and flushed to harvest bone marrow and to obtain a progenitor cell population. To generate BMDMs, 4-6×10^6 bone marrow cells were cultured in non-tissue culture treated T175 flasks with 25 mL of DMEM/F12 supplemented with 10% (v/v) FBS, 1% (v/v) P/S, 5% (v/v) GlutaMAX and recombinant murine macrophage-colony-stimulating factor (M-CSF, 20 ng/mL). The flasks were supplemented with additional medium on day 3 and day 6. To generate BMDCs, 2×10^6 bone marrow cells were added to non-tissue culture-treated petri dishes and cultured in 10 mL of RPMI-1640 supplemented with 10% (v/v) FBS, 1% (v/v) and recombinant murine granulocyte-macrophage colony-stimulating factor (GM-CSF, 20 ng/mL), 10 mL more of which was added on day 3. […]
Assessment of primary immune cell activation: BMDCs or BMDMs were seeded in 24-well plates at 2×10^5 cells per well and incubated with the CDN-NP or free CDN at equal CDN concentrations ranging from 1-100 nM. […] After 24 hours, the supernatant was removed and cells were then collected, washed, stained, fixed, and analyzed by flow cytometry. […] In addition, IFN-0, IL-6, and TNF-α were analyzed from the supernatant using a custom Legendplex™ panel (BioLegend) as per the manufacturer's instructions.

[3] = system: interferon regulatory factor (IRF)3 activity; experiment: IRF3 reporter activity in THP-1 Dual cells (QUANTI-Luc); format: cell-based, Human; settings: for IRF and NF-kB activation compared with 2.3cGAMP: THP-1 reporter cell line, FIG. 30
Experimental: as §1

B16-F10 tumors = experiment: In vivo therapeutic efficacy, B16-F10 melanoma; design: species or system mice; settings: B16-F10, 0.5 μg CDN i.v. x3, 4 d apart
Experimental: In vivo therapeutic efficacy: B16-F10, 4T1, and CT-26 cells were injected subcutaneously into the right flank of 6-8-week-old female mice (of the appropriate background for the cell type) in 100 μL HBSS at densities of 5×10^5, 1×10^6, and 1×10^6 cells/injection, respectively. Approximately 7 days post tumor inoculation (˜50 mm^3), mice were subjected to intravenous injection (100 μL) of free CDN or CDN-NP at a CDN dose of 0.5 μg. Mice were injected 3 times with treatments spaced 4 d apart. Groups receiving checkpoint blockade were injected intraperitoneally 24 h post systemic administration with 100 μg anti-PD-1 (clone RMP1.14, Bio X Cell). The tumor size was measured every other day via caliper measurements and the tumor volume calculated using the equation V=L×W×H×(π/6). Body weight was measured contemporaneously with tumor volume.

[4] = system: immune cell populations in the TME, tdLN, and spleen; experiment: Immunophenotyping by flow cytometry in B16-F10 tumor-bearing mice; format: in vivo, C57BL6/J mice
Experimental: Immunophenotyping analysis: Subcutaneous B16-F10 tumors were established in female C57BL6/J mice (6-8 weeks old), as previously described. The treatment groups were: PBS (untreated control), aPD-1 mAb, free CDN, free CDN with aPD-1 mAb, CDN-NPs, and CDN NPs with aPD-1 mAb. CDN formulations (free drug or NP, 0.5 μg CDN) were administered intravenously and aPD-1 mAb (100 μg) was administered intraperitoneally 24 h after CDN treatment. Dendritic cells and macrophages were assessed 48 h after treatment and T cells were analyzed 7 days post-treatment. Tumors were harvested, chopped, and digested in a solution of HBSS supplemented with collagenase I, II, and IV (100 ng/mL) and DNase I […] for 2 h at 37° C. TdLNs and spleens were harvested and mechanically dissociated. Single cell suspensions of tumors, tdLNs, and spleens were filtered through a 40 µm nylon cell strainer. Spleen and tumor cells were further treated with ACK Lysing Buffer (Gibco). Cells were washed, filtered through a 40 μm nylon cell strainer, and counted. For intracellular IFN-γ cytokine analysis, 1×10^6 cells were seeded in a 24-well plate in DMEM containing 10% (v/v) FBS and supplemented with PMA/ionomycin/Brefeldin A cocktail (BioLegend). After 4 h, the cells were washed and stained in 100 μL cell staining buffer (BioLegend). Intracellular staining was performed using an intracellular staining permeabilization wash buffer (BioLegend) The following anti-mouse antibodies were used for flow cytometry were purchased from BioLegend: CD45 APC-Cy7 (clone 30-F11), NK-1.1 BV710 (clone PK136), IFN-γ BV421 (clone XMG1.2), CD279 (PD-1) FITC (clone 29F.1A12), CD45 BV785 (clone 30-F11), CD11b BV421 (clone M1/70), Ly-6C APC-Cy7 (clone HK1.4), Ly-6G BV661 (clone 1A8), CD8a BV421 (clone 53-6.7), CD86 BV510 (clone GL-1), CD80 BV711 (clone 16-10A1), CD206 PE (clone C068C2), MHCII BV605 (clone M5/114.15.2), CD11c APC (clone N418), Siglec H PE (clone 551), and CD44 BV786 (clone IM7).
The following anti-mouse antibodies were purchased from BD Biosciences: CD3 BB700 (clone 17A2), CD4 BUV395 (clone GK1.5), CD8a BUV737 (clone 53-6.7), F4/80 BUV395 (clone T45-2342), CD103 BUV395 (clone M290), CD80 BUV737 (clone 16-10A1), ki67 BV510 (clone B56), CD69 BV605 (clone H1.2F3), and CD62L PE-CF594 (clone MEL-14). Live cells were gated using LIVE/DEAD™ (Thermo Fisher) aqua (cat. no. L34966), green (cat. no. L34970), or near-IR (cat. no. L34976). Stained cells were analyzed by flow cytometry using a BD LSRFortessa™ flow cytometer (BD Biosciences) and all data were analyzed using FlowJo software (FlowJo LLC).

[5] = tdLN, 7 d after single treatment

Structure (SMILES)	CDN (nM) in plasma [1]	CDN (nM) in plasma ([1]; listed as free CDNs)	EC50 (IRF response)	dose required to achieve the same degree of CD86 upregulation (15-fold) [2]	EC50 ([3]; THP-1 Dual cells, 24 h, read-out: EC50 IRF3 activation)	IRF and NF-kB activation compared with 2.3cGAMP [3]	tumor growth and survival (B16-F10 tumors)	CD86 expression on DCs in the spleen ([4]; 48 h after i.v., B16-F10)	proportion of CD4+ T cells secreting IFN-γ in the TME ([4]; 7 d, ex vivo restimulation)	proportion of CD8+ T cells secreting IFN-γ in the TME ([4]; 7 d, ex vivo restimulation)	CD4+ central memory T cells (TCM) [4, 5]	CD4+ effector memory T cells (TEM) [4, 5]
Nc1nc2c(ncn2[C@@H]2O[C@@H]3CO[P@@](=O)(S)O[C@H]4C[C@H](Oc5ccncn5)C[C@@H]4CO[P@@](=O)(S)O[C@@H]2[C@@H]3O)c(=O)[nH]1 [free CDN, 2-Amino-9-[(2R,5R,7R,8R,10R,12aR,14R,15aS,16R)-16-hydroxy-2,10-dioxido 14-(pyrimidin-4-yloxy)-2,10-disulfanyldecahydro-5,8 methanocyclopenta[1][1,3,6,9,11,2,10]pentaoxadiphosphacyclotetradecin-7-yl]-1,9-dihydro-6H-purin-6-one]	<5 nM	< 5 nM	> 1 µM	100 nM	1.15 µM	higher IRF and NF-kB activation than 2.3cGAMP	only a modest suppression of tumor growth and no increase in survival	8.4±1.3%	4.0±1.0%	15.7±3.5%	6.2±0.4%	5.3±0.8%
CC(C)[C@H](NC(=O)CCCCCN1C(=O)C=CC1=O)C(=O)N[C@@H](C)C(=O)Nc1ccc(COC(=O)N(C)Cc2ccccc2C(=O)Nc2nc3c(ncn3[C@@H]3O[C@@H]4CO[P@@](=O)(S)O[C@H]5C[C@H](Oc6ccncn6)C[C@@H]5CO[P@@](=O)(S)O[C@@H]3[C@@H]4O)c(=O)[nH]2)cc1 [CDN-linker, 4-{[(2S)-2-{[(2S)-2-{[6-(2,5-Dioxo-2,5-dihydro-1H-pyrrol-1 yl)hexanoyl]amino}-3-methylbutanoyl]amino}propanoyl]amino}benzyl [2-({9[(2R,5R,7R,8R,10R,12aR,14R,15aS,16R)-16-hydroxy-2,10-dioxido-14-(pyrimidin-4-yloxy)-2,10-disulfanyldecahydro-5,8-methanocyclopenta[1][1,3,6,9,11,2,10]Pentaoxadiphosphacyclotetradecin-7-yl]-6-oxo-6,9-dihydro-1H-purin-2-yl}carbamoyl)benzyl]methylcarbamate]						higher IRF and NF-kB activation than 2.3cGAMP						
